Source: US6214838A, “Thienodipyridine derivatives, production and use thereof” (Takeda Chemical Industries, Ltd., priority 1998, dated 2001)

Tests used:
Rat Adjuvant Arthritis = assay: Action Against Rat Adjuvant Arthritis (paw swelling suppression); assay type: in vivo, rat (male Lewis); settings: 3.13 mg/kg once daily for 14 days, suspension in 0.5% methyl cellulose; left hind paw volume at day 14; N=6; **: p < 0.05 vs control (Dunnett's test)
[1] = Stability Against Metabolism by Liver Microsome; assay type: in vitro ADME; settings: dog liver microsome, NADPH-producing system, phosphate buffer pH 7.4, 37° C.; n=2, mean
Protocol: Stability Against Metabolism by Liver Microsome:
A dog liver microsome was prepared by a standard method. In a phosphate buffer (pH 7.4), a test substance, a liver microsome and NADPH-producing system [0.5 mM, β-NADP (NADP: nicotinamide adenine dinucleotide phosphate), 1 mM magnesium chloride, 5 mM glucose-6-phosphate, 150units/ml glucose-6-phosphate dehydrogenase (each as final concentration in reaction system)] were mixed and incubated at 37° C. The concentration of the test substance after the discontinuation of the reaction was determined by high pressure liquid chromatography to obtain % residue (n=2, mean).

## CCOc1ccc(-c2c(Cl)c(CN3C(=O)CCC3=O)nc3sc4c(c23)CCNC4)cc1 [Example 11, 3-chloro-4-(4-ethoxyphenyl)-5,6,7,8-tetrahydro-2-(succinimidomethyl)thieno[2,3-b:5,4-c']dipyridine]
Rat Adjuvant Arthritis
  Swelling suppression rate (%): 98%
[1]
  Residue (%): 94.1%

## COc1cc(-c2c(Cl)c(CN3C(=O)CCC3=O)nc3sc4c(c23)CCN(C(C)=O)C4)ccc1O [Example 22, 7-acetyl-3-chloro-5,6,7,8-tetrahydro-4-(4-hydroxy-3-methoxyphenyl)-2-(succinimidomethyl)thieno[2,3-b:5,4-c']dipyridine]
Rat Adjuvant Arthritis
  Swelling suppression rate (%): 75%

## O=C1CCC(=O)N1Cc1nc2sc3c(c2c(-c2ccc(O)cc2)c1Cl)CCNC3 [Example 15, 3-chloro-4-(4-hydroxyphenyl)-5,6,7,8-tetrahydro-2-(succinimidomethyl)thieno[2,3-b:5,4-c']dipyridine]
[1]
  Residue (%): 96.3%

## COc1ccc(-c2c(Br)c(CN3C(=O)CCC3=O)nc3sc4c(c23)CCNC4)cc1 [Example 4, 3-bromo-5,6,7,8-tetrahydro-4-(4-methoxyphenyl)-2-(succinimidomethyl)thieno[2,3-b:5,4-c']dipyridine]
Rat Adjuvant Arthritis
  Swelling suppression rate (%): 85%

## COc1ccc(-c2c(Cl)c(CN3C(=O)CCC3=O)nc3sc4c(c23)CCNC4)cc1OC [Example 2, 3-chloro-4-(3,4-dimethoxyphenyl)-5,6,7,8-tetrahydro-2-(succinimidomethyl)thieno[2,3-b:5,4-c']dipyridine]
Rat Adjuvant Arthritis
  Swelling suppression rate (%): 92%
[1]
  Residue (%): 87.8%

## COc1ccc(-c2c(Cl)c(CN3C(=O)CCC3=O)nc3sc4c(c23)CCNC4)cc1 [Example 1, 3-chloro-5,6,7,8-tetrahydro-4-(4-methoxyphenyl)-2-(succinimidomethyl)thieno[2,3-b:5,4-c']dipyridine]
Rat Adjuvant Arthritis
  Swelling suppression rate (%): 94%
[1]
  Residue (%): 90.5%

## COc1ccc(-c2c(Cl)c(CN3C(=O)CCC3=O)nc3sc4c(c23)CCN(C(C)=O)C4)cc1OC [Example 18, 7-acetyl-3-chloro-4-(3,4-dimethoxyphenyl)-5,6,7,8-tetrahydro-2-(succinimidomethyl)thieno[2,3-b:5,4-c']dipyridine]
Rat Adjuvant Arthritis
  Swelling suppression rate (%): 92%
